In patent publication US11685744B2, “CDK inhibitors and their use as pharmaceuticals” (Prelude Therapeutics, Incorporated, priority 2020, dated 2023) one finds IC50 data, which are given here for 19 compounds.

The test system of assay [1] is MCF7 adenocarcinoma cell line. Briefly: Cell proliferation studies in MCF7 cells (ATP-Lite, 10 days). Particulars: read-out: PROLIFERATION_CTG_MCF7 IC50. In kind it is cell-based. In outline: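 Cells were seeded at 100 or 200 per well in DMEM with 10% FBS and dosed in quadruplicate over a 9-point 3-fold dilution. Incubation lasted 10 days at 37 °C, with media exchange and re-dosing on day 5. Viability was read by ATP-Lite luminescence and normalised to background and DMSO, giving IC50.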

The next assay addresses CDK4/Cyclin D1 (Homo sapiens (Human), UniProt P11802). As to the kind of experiment: CDK4/CyclinD1 enzymatic activity assay (TR-FRET). In kind it is biochemical. Conditions: ATP 2 mM, read-out: CDK4_D1 IC50. In outline:
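Insect-cell CDK4/Cyclin D1 (1 nM) with ULight-4E-BP1 (100 nM) and 2 mM ATP in HEPES pH 7.4 buffer, preincubated 20 min with compound (9-dose, 3-fold dilutions); 10 mM MgCl2 started the reaction, run 60 min at 37 °C. EDTA/Eu-anti-phospho-4E-BP1 TR-FRET detection; IC50 from 4-parameter Hill fit.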

For the next assay, the target named is CDK6/Cyclin D1 (Homo sapiens (Human), UniProt Q00534). As to the kind of experiment: CDK6/CyclinD1 enzymatic activity assay (TR-FRET). In kind it is biochemical. Particulars: ATP 250 μM, read-out: CDK6_D1 IC50. The method, then:
CDK6/CyclinD1 Enzymatic Activity Assay
The inhibitory activity of compounds was evaluated in vitro using TR-FRET assay with white 384-well low volume microplate (Greiner Bio-One). CDK6/Cyclin D1 catalyzed phosphorylation of peptide in the presence and absence of compounds was measured and used in IC50 determination. Recombinant protein complex CDK6/Cyclin D1, expressed from insect cell, was purchased from ProQinase. Testing compounds were dissolved in DMSO at 0.1 mM and tested in 9-dose IC50 mode. The reaction mixture was prepared by mixing CDK6/Cyclin D1 (1 nM final), ULight-4E-BP1 (100 nM final, Perkinelmer, TRF0128-D), and ATP (250 μM final) in assay buffer (20 mM of HEPES pH 7.4, 1 mM of EGTA, 0.05% BSA, 0.005% Tween 20, and 1 mM TCEP). The compound of interest in DMSO was added to each well in 3-fold serial dilution by dispenser (TECAN D300E). After 20 minutes preincubation at room temperature, 0.1 μL MgCl2 (10 mM final) was added to initiate the reaction. Following a 60 minutes incubation at 37° C., the reaction was stopped by addition of 2 μL of quenching buffer consisting of Lance detection buffer (Perkinelmer CR97-100C), 2 nM LANCE Ultra Europium-anti-P-4E-BP1 (Perkinelmer, TRF0216-D), 10 mM EDTA, and incubate at room temperature for additional 60 minutes in dark. The reaction signal was measured by Envision multimode plate reader (PerkinElmer, 2102-0010). IC50 values were determined by fitting the data to the standard 4 parameters with Hill Slope using GraphPad Prism software.
A general note: Time-resolved FRET reads energy transfer from a long-lived donor to a nearby acceptor.

Like-named read-outs stand apart in the source and are kept apart here. Some results are limits rather than exact numbers.

Chain of CDK4/Cyclin D1 (P11802 whole entry): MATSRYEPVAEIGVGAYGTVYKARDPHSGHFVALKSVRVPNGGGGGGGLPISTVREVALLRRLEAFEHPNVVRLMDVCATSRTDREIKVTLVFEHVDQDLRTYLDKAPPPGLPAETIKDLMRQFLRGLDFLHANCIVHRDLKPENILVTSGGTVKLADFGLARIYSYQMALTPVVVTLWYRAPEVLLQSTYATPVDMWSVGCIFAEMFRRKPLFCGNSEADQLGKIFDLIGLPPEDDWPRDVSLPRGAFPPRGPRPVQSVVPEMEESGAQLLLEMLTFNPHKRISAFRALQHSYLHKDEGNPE
Chain of CDK4/Cyclin D1 (P24385 whole entry partner): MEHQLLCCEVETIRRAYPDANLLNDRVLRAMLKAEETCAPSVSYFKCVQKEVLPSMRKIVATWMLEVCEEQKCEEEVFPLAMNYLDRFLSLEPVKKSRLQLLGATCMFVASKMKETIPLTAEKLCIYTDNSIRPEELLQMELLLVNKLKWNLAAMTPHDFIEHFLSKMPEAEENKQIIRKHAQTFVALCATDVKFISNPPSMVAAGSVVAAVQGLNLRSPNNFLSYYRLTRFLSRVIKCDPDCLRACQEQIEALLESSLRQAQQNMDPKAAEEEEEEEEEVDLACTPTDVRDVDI
Chain of CDK6/Cyclin D1 (Q00534 whole entry): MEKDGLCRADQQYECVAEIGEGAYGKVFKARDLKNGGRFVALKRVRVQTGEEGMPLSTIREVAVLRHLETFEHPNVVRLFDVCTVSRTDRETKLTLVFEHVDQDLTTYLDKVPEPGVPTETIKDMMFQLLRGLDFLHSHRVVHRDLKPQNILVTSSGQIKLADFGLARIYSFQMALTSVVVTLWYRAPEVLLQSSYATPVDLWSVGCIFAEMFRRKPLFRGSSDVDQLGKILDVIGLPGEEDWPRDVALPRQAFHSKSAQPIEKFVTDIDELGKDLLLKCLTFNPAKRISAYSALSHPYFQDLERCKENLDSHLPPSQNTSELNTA
Chain of CDK6/Cyclin D1 (P24385 whole entry partner): as the sequence (P24385 whole entry partner) above

Regarding `CCN1CCN(C(=O)c2ccc(Nc3ncc(F)c(-c4cc5c(=O)n(C)cc(C(C)C)c5s4)n3)nc2)CC1` [Example 59, 2-(2-((5-(4-Ethylpiperazine-1-carbonyl)pyridin-2-yl)amino)-5-fluoropyrimidin-4-yl)-7-isopropyl-5-methylthieno[3,2-c]pyridin-4(5H)-one], the IC50 in assay [1] (Homo sapiens, 240 h) is 20 to 200 nM; on CDK4/Cyclin D1 it was not above 20 nM; at CDK6/Cyclin D1, 20 to 200 nM.
`Cc1c(-c2nc(Nc3ccccn3)ncc2F)sc2c1nc(C)n2C(C)C` [Example 66, 4-(2,6-Dimethyl-3-propan-2-ylthieno[2,3-d]imidazol-5-yl)-5-fluoro-N-pyridin-2-ylpyrimidin-2-amine]: the IC50 at CDK4/Cyclin D1 and at CDK6/Cyclin D1 was 20 to 200 nM each time.
As for `Cc1c(-c2nc(Nc3ccc(C4CCNCC4)cn3)ncc2F)sc2c(C(C)C)cn(C)c(=O)c12` [Example 94, 2-(5-Fluoro-2-((5-(piperidin-4-yl)pyridin-2-yl)amino)pyrimidin-4-yl)-7-isopropyl-3,5-dimethylthieno[3,2-c]pyridin-4(5H)-one], the IC50 was 20 to 200 nM in assay [1] (Homo sapiens, 240 h); not above 20 nM at CDK4/Cyclin D1; not above 20 nM on CDK6/Cyclin D1.
Turning to `CCN1CC2CC1CN2c1ccc(Nc2ncc(F)c(-c3cc4c(=O)n(C)cc(C(C)C)c4s3)n2)nc1` (stereo not shown) [Example 81, 2-(2-((5-(5-Ethyl-2,5-diazabicyclo[2.2.1]heptan-2-yl)pyridin-2-yl)amino)-5-fluoropyrimidin-4-yl)-7-isopropyl-5-methylthieno[3,2-c]pyridin-4(5H)-one], the IC50 in assay [1] (Homo sapiens, 240 h) was 20 to 200 nM; at CDK4/Cyclin D1, not above 20 nM; on CDK6/Cyclin D1, not above 20 nM.
With `CCN1C2CC1CN(c1ccc(Nc3ncc(F)c(-c4cc5c(=O)n(C)cc(C(C)C)c5s4)n3)nc1)C2` [Example 58, 2-(2-((5-(6-Ethyl-3,6-diazabicyclo[3.1.1]heptan-3-yl)pyridin-2-yl)amino)-5-fluoropyrimidin-4-yl)-7-isopropyl-5-methylthieno[3,2-c]pyridin-4(5H)-one], the IC50 in assay [1] (Homo sapiens, 240 h) was 20 to 200 nM; on CDK4/Cyclin D1, not above 20 nM; at CDK6/Cyclin D1 it was 20 to 200 nM.
Regarding `CCN1CCN(Cc2ccc(Nc3ncc(F)c(-c4sc5c(C6CCCC6)ccnc5c4Cl)n3)nc2)CC1` [Example 30, 4-(3-Chloro-7-cyclopentylthieno[3,2-b]pyridin-2-yl)-N-[5-[(4-ethylpiperazin-1-yl)methyl]pyridin-2-yl]-5-fluoropyrimidin-2-amine], the IC50 is 20 to 200 nM in assay [1] (Homo sapiens, 240 h); not above 20 nM at CDK4/Cyclin D1; 20 to 200 nM at CDK6/Cyclin D1.
Take `Cc1c(-c2nc(Nc3ccc(N4CC5(C4)CN(C(C)C)C5)cn3)ncc2F)sc2c(C(C)C)cn(C)c(=O)c12` [Example 92, 2-(5-Fluoro-2-((5-(6-isopropyl-2,6-diazaspiro[3.3]heptan-2-yl)pyridin-2-yl)amino)pyrimidin-4-yl)-7-isopropyl-3,5-dimethylthieno[3,2-c]pyridin-4(5H)-one]: the IC50 in assay [1] (Homo sapiens, 240 h) was 20 to 200 nM; on CDK4/Cyclin D1, not above 20 nM; on CDK6/Cyclin D1 it was not above 20 nM.
With “4-(2,6-Dimethyl-3-propan-2-ylthieno[2,3-d]imidazol-5-yl)-N-[5-(4-ethyl-6,6-difluoro-1,4-diazepan-1-yl)pyridin-2-yl]-5-fluoropyrimidin-2-amine [Example 68]”, the IC50 in assay [1] is 20 to 200 nM; at CDK6/Cyclin D1, not above 20 nM.
Take `Cc1c(-c2nc(Nc3ccc(N4CCN(CC(F)(F)F)CC4)cn3)ncc2F)sc2c(C(C)C)cn(C)c(=O)c12` [Example 80, 2-(5-Fluoro-2-((5-(4-(2,2,2-trifluoroethyl)piperazin-1-yl)pyridin-2-yl)amino)pyrimidin-4-yl)-7-isopropyl-3,5-dimethylthieno[3,2-c]pyridin-4(5H)-one]: the IC50 in assay [1] (Homo sapiens, 240 h) fell in the range of 200 to 2000 nM; on CDK4/Cyclin D1, 20 to 200 nM; at CDK6/Cyclin D1 it was 20 to 200 nM.
As for `Cc1nc2cc(-c3nc(Nc4ccc(N5CC(N(C)C)C5)cn4)ncc3F)sc2n1C(C)C` [Example 72, N-[5-[3-(Dimethylamino)azetidin-1-yl]pyridin-2-yl]-5-fluoro-4-(2-methyl-3-propan-2-ylthieno[2,3-d]imidazol-5-yl)pyrimidin-2-amine], the IC50 was 20 to 200 nM in assay [1] (Homo sapiens, 240 h); not above 20 nM on CDK4/Cyclin D1; not above 20 nM on CDK6/Cyclin D1.
Take `CCN1CCN(c2ccc(Nc3ncc(F)c(-c4sc5c(C(C)C)ccnc5c4C(F)(F)F)n3)nc2)CC1` [Example 121, N-[5-(4-Ethylpiperazin-1-yl)pyridin-2-yl]-5-fluoro-4-[7-propan-2-yl-3-(trifluoromethyl)thieno[3,2-b]pyridin-2-yl]pyrimidin-2-amine]: the IC50 was 20 to 200 nM in assay [1] (Homo sapiens, 240 h); not above 20 nM at CDK4/Cyclin D1; 20 to 200 nM at CDK6/Cyclin D1.
On to `CCN1CC2(C1)CN(c1ccc(Nc3ncc(F)c(-c4sc5c(c4C)c(=O)ncn5C(C)C)n3)nc1)C2` [Example 62, 6-(2-((5-(6-Ethyl-2,6-diazaspiro[3.3]heptan-2-yl)pyridin-2-yl)amino)-5-fluoropyrimidin-4-yl)-1-isopropyl-5-methylthieno[2,3-d]pyrimidin-4(1H)-one], for which the IC50 in assay [1] (Homo sapiens, 240 h) was 20 to 200 nM; on CDK4/Cyclin D1, not above 20 nM; at CDK6/Cyclin D1, not above 20 nM.
For `CCN1CC2(C1)CN(c1ccc(Nc3ncc(F)c(-c4cc5c(=O)n(C)nc(C6CN(C(=O)OC(C)(C)C)C6)c5s4)n3)nc1)C2` [Example 109, tert-Butyl 3-(2-(2-((5-(6-ethyl-2,6-diazaspiro[3.3]heptan-2-yl)pyridin-2-yl)amino)-5-fluoropyrimidin-4-yl)-5-methyl-4-oxo-4,5-dihydrothieno[2,3-d]pyridazin-7-yl)azetidine-1-carboxylate], the IC50 in assay [1] (Homo sapiens, 240 h) is 20 to 200 nM; at CDK4/Cyclin D1, not above 20 nM; at CDK6/Cyclin D1 it was 20 to 200 nM.
As for `Cc1c(-c2nc(Nc3ccc(C4CN(C)C4)cn3)ncc2F)sc2c1nc(C)n2C(C)C` [Example 108, 5-Fluoro-4-(3-isopropyl-2,6-dimethyl-3H-thieno[2,3-d]imidazol-5-yl)-N-(5-(1-methylazetidin-3-yl)pyridin-2-yl)pyrimidin-2-amine], the IC50 in assay [1] (Homo sapiens, 240 h) was 20 to 200 nM; at CDK4/Cyclin D1 it was not above 20 nM; on CDK6/Cyclin D1, 20 to 200 nM.
For the compound `CCN1CC2(C1)CN(C(=O)c1ccc(Nc3ncc(F)c(-c4cc5nc(C)n(C(C)C)c5s4)n3)nc1)C2` [Example 71, (6-Dthyl-2,6-diazaspiro[3.3]heptan-2-yl)-[6-[[5-fluoro-4-(2-methyl-3-propan-2-ylthieno[2,3-d]imidazol-5-yl)pyrimidin-2-yl]amino]pyridin-3-yl]methanone], the IC50 in assay [1] was 20 to 200 nM; at CDK4/Cyclin D1 it was not above 20 nM; on CDK6/Cyclin D1, 20 to 200 nM.
As to `CCN1CC2(C1)CN(c1ccc(Nc3ncc(F)c(-c4sc5c(nc(C)n5C(C)C)c4C)n3)nn1)C2` [Example 53, 6-(6-Ethyl-2,6-diazaspiro[3.3]heptan-2-yl)-N-(5-fluoro-4-(3-isopropyl-2,6-dimethyl-3H-thieno[2,3-d]imidazol-5-yl)pyrimidin-2-yl)pyridazin-3-amine], the IC50 in assay [1] (Homo sapiens, 240 h) was 20 to 200 nM; at CDK4/Cyclin D1, not above 20 nM; at CDK6/Cyclin D1, not above 20 nM.
Take `CCN1CCN(c2ccc(Nc3ncc(F)c(-c4cc5nccc(C(C)(C)O)c5s4)n3)nc2)CC1` [Example 17, 2-[2-[2-[[5-(4-Ethylpiperazin-1-yl)pyridin-2-yl]amino]-5-fluoropyrimidin-4-yl]thieno[3,2-b]pyridin-7-yl]propan-2-ol]: the IC50 in assay [1] (Homo sapiens, 240 h) is 20 to 200 nM; at CDK4/Cyclin D1 it was not above 20 nM; on CDK6/Cyclin D1, 20 to 200 nM.
Turning to `Cc1c(-c2nc(Nc3ccc(N4CC5(CCN5C)C4)cn3)ncc2F)sc2c1nc(C)n2C(C)C` [Example 67, 4-(2,6-Dimethyl-3-propan-2-ylthieno[2,3-d]imidazol-5-yl)-5-fluoro-N-[5-(1-methyl-1,6-diazaspiro[3.3]heptan-6-yl)pyridin-2-yl]pyrimidin-2-amine], the IC50 is 20 to 200 nM in assay [1] (Homo sapiens, 240 h); not above 20 nM at CDK4/Cyclin D1; not above 20 nM at CDK6/Cyclin D1.
`Cc1c(-c2nc(Nc3ccc(C4CCCN(C)C4)cn3)ncc2F)sc2c1ncn2C(C)C` (single isomer, unassigned) [Example 126, 5-Fluoro-N-[5-[-1-methylpiperidin-3-yl]pyridin-2-yl]-4-(6-methyl-3-propan-2-ylthieno[2,3-d]imidazol-5-yl)pyrimidin-2-amine]: the IC50 in assay [1] was 20 to 200 nM; at CDK4/Cyclin D1, not above 20 nM; on CDK6/Cyclin D1 it was not above 20 nM.
